From US10251395B2, “Substituted furano-/thienocycloalkylamino-2-pyrimidine derivatives and use thereof for controlling undesired plant growth” (Bayer CropScience Aktiengesellschaft, priority 2015, dated 2019)

Assays:
[1] = system: Echinochloa crus-galli; experiment: Pre-emergence herbicidal effect; format: in vivo; settings: scored visually after 3 weeks
Summary of the method: (§1)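 Seeds sown in sandy loam in wood-fiber pots and covered with soil; WP or EC formulations applied to the soil surface as aqueous suspension or emulsion at 600 to 800 L/ha water with 0.2% wetting agent. Greenhouse, 3 weeks; damage scored visually versus untreated controls (100% = plants died, 0% = like control).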

[2] = system: Alopecurus myosuroides; experiment: Pre-emergence herbicidal effect; format: in vivo; settings: scored visually after 3 weeks
Summary of the method: as §1

[3] = system: Lolium multiflorum; experiment: Pre-emergence herbicidal effect; format: in vivo; settings: scored visually after 3 weeks
Summary of the method: as §1

[4] = system: Abutilon theophrasti; experiment: Pre-emergence herbicidal effect; format: in vivo; settings: Dosage 320 g/ha, scored visually after 3 weeks
Summary of the method: as §1

[5] = system: Amaranthus retroflexus; experiment: Pre-emergence herbicidal effect; format: in vivo; settings: scored visually after 3 weeks
Summary of the method: as §1

[6] = system: Matricaria inodora; experiment: Pre-emergence herbicidal effect; format: in vivo; settings: scored visually after 3 weeks
Summary of the method: as §1

[7] = system: Stellaria media; experiment: Pre-emergence herbicidal effect; format: in vivo; settings: scored visually after 3 weeks
Summary of the method: as §1

[8] = system: Setaria viridis; experiment: Pre-emergence herbicidal effect; format: in vivo; settings: scored visually after 3 weeks
Summary of the method: as §1

[9] = system: Viola tricolor; experiment: Pre-emergence herbicidal effect; format: in vivo; settings: scored visually after 3 weeks
Summary of the method: as §1

[10] = system: Veronica persica; experiment: Pre-emergence herbicidal effect; format: in vivo; settings: scored visually after 3 weeks
Summary of the method: as §1

[11] = system: Polygonum convolvulus; experiment: Pre-emergence herbicidal effect; format: in vivo; settings: scored visually after 3 weeks
Summary of the method: as §1

[12] = system: Avena fatua; experiment: Pre-emergence herbicidal effect; format: in vivo; settings: Dosage 320 g/ha, scored visually after 3 weeks
Summary of the method: as §1

[13] = system: Cyperus esculentus; experiment: Pre-emergence herbicidal effect; format: in vivo; settings: scored visually after 3 weeks
Summary of the method: as §1

[14] = logP (HCOOH); format: physicochemical; settings: HCOOH (formic acid)
Text: Table 2 (physicochemical characterization of selected synthesis examples)

[15] = system: Echinochloa crus-galli; experiment: Post-emergence herbicidal effect; format: in vivo; settings: 320 g/ha, assessed visually after about 3 weeks vs untreated controls
Summary of the method: (§2)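 Visual % damage vs untreated plants, ~3 wk after spraying (100% = dead, 0% = as control). Post-emergence foliar spray at one-leaf stage; WP/EC in water, 600–800 L/ha + 0.2% wetting agent; sandy loam, greenhouse.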

[16] = system: Alopecurus myosuroides; experiment: Post-emergence herbicidal effect; format: in vivo; settings: 320 g/ha, assessed visually after about 3 weeks vs untreated controls
Summary of the method: as §2

[17] = system: Lolium multiflorum; experiment: Post-emergence herbicidal effect; format: in vivo; settings: assessed visually after about 3 weeks vs untreated controls
Summary of the method: as §2

[18] = system: Abutilon theophrasti; experiment: Post-emergence herbicidal effect; format: in vivo; settings: assessed visually after about 3 weeks vs untreated controls
Summary of the method: as §2

[19] = system: Amaranthus retroflexus; experiment: Post-emergence herbicidal effect; format: in vivo; settings: assessed visually after about 3 weeks vs untreated controls
Summary of the method: as §2

[20] = system: Matricaria inodora; experiment: Post-emergence herbicidal effect; format: in vivo; settings: 320 g/ha, assessed visually after about 3 weeks vs untreated controls
Summary of the method: as §2

[21] = system: Stellaria media; experiment: Post-emergence herbicidal effect; format: in vivo; settings: assessed visually after about 3 weeks vs untreated controls
Summary of the method: as §2

[22] = system: Setaria viridis; experiment: Post-emergence herbicidal effect; format: in vivo; settings: assessed visually after about 3 weeks vs untreated controls
Summary of the method: as §2

[23] = system: Viola tricolor; experiment: Post-emergence herbicidal effect; format: in vivo; settings: assessed visually after about 3 weeks vs untreated controls
Summary of the method: as §2

[24] = system: Veronica persica; experiment: Post-emergence herbicidal effect; format: in vivo; settings: assessed visually after about 3 weeks vs untreated controls
Summary of the method: as §2

[25] = system: Polygonum convolvulus; experiment: Post-emergence herbicidal effect; format: in vivo; settings: 320 g/ha, assessed visually after about 3 weeks vs untreated controls
Summary of the method: as §2

[26] = system: Avena fatua; experiment: Post-emergence herbicidal effect; format: in vivo; settings: assessed visually after about 3 weeks vs untreated controls
Summary of the method: as §2

[27] = system: Ipomoea purpurea; experiment: Post-emergence herbicidal effect; format: in vivo; settings: 320 g/ha, assessed visually after about 3 weeks vs untreated controls
Summary of the method: as §2

Cc1sc2c(c1C)C(Nc1ncc(C(F)(F)F)c(N)n1)CCC2 (stereo not shown) [compound 213, N2-(2,3-Dimethyl-4,5,6,7-tetrahydrobenzothiophen-4-yl)-5-(trifluoromethyl)pyrimidine-2,4-diamine]
80%: LOLMU pre-emergence efficacy (herbicidal activity) ([3]; Dosage 80 g/ha) | CYPES pre-emergence efficacy (herbicidal activity) ([13]; Dosage 80 g/ha) | CYPES pre-emergence efficacy (herbicidal activity) ([13]; Dosage 320 g/ha) | post-emergence efficacy LOLMU ([17]; 80 g/ha) | post-emergence efficacy LOLMU ([17]; 320 g/ha) | post-emergence efficacy ABUTH ([18]; 80 g/ha) | post-emergence efficacy AMARE ([19]; 80 g/ha) | post-emergence efficacy STEME ([21]; 80 g/ha) | post-emergence efficacy VERPE ([24]; 80 g/ha) | post-emergence efficacy AVEFA ([26]; 80 g/ha) | post-emergence efficacy AVEFA ([26]; 320 g/ha)
90%: ECHCG pre-emergence efficacy (herbicidal activity) ([1]; Dosage 80 g/ha) | POLCO pre-emergence efficacy (herbicidal activity) ([11]; Dosage 80 g/ha) | post-emergence efficacy ECHCG [15] | post-emergence efficacy ALOMY [16] | post-emergence efficacy ABUTH ([18]; 320 g/ha) | post-emergence efficacy AMARE ([19]; 320 g/ha) | post-emergence efficacy MATIN [20] | post-emergence efficacy STEME ([21]; 320 g/ha) | post-emergence efficacy SETVI ([22]; 320 g/ha) | post-emergence efficacy VIOTR ([23]; 80 g/ha) | post-emergence efficacy VERPE ([24]; 320 g/ha) | post-emergence efficacy POLCO [25] | post-emergence efficacy PHBPU [27]
2.66: chromatographic logP [14]
50%: post-emergence efficacy SETVI ([22]; 80 g/ha)
100%: ECHCG pre-emergence efficacy (herbicidal activity) ([1]; Dosage 320 g/ha) | ALOMY pre-emergence efficacy (herbicidal activity) ([2]; Dosage 80 g/ha) | ALOMY pre-emergence efficacy (herbicidal activity) ([2]; Dosage 320 g/ha) | LOLMU pre-emergence efficacy (herbicidal activity) ([3]; Dosage 320 g/ha) | ABUTH pre-emergence efficacy (herbicidal activity) [4] | AMARE pre-emergence efficacy (herbicidal activity) ([5]; Dosage 80 g/ha) | AMARE pre-emergence efficacy (herbicidal activity) ([5]; Dosage 320 g/ha) | MATIN pre-emergence efficacy (herbicidal activity) ([6]; Dosage 80 g/ha) | MATIN pre-emergence efficacy (herbicidal activity) ([6]; Dosage 320 g/ha) | STEME pre-emergence efficacy (herbicidal activity) ([7]; Dosage 80 g/ha) | STEME pre-emergence efficacy (herbicidal activity) ([7]; Dosage 320 g/ha) | SETVI pre-emergence efficacy (herbicidal activity) ([8]; Dosage 80 g/ha) | SETVI pre-emergence efficacy (herbicidal activity) ([8]; Dosage 320 g/ha) | VIOTR pre-emergence efficacy (herbicidal activity) ([9]; Dosage 80 g/ha) | VIOTR pre-emergence efficacy (herbicidal activity) ([9]; Dosage 320 g/ha) | VERPE pre-emergence efficacy (herbicidal activity) ([10]; Dosage 80 g/ha) | VERPE pre-emergence efficacy (herbicidal activity) ([10]; Dosage 320 g/ha) | POLCO pre-emergence efficacy (herbicidal activity) ([11]; Dosage 320 g/ha) | AVEFA pre-emergence efficacy (herbicidal activity) [12] | post-emergence efficacy VIOTR ([23]; 320 g/ha)
